Results as given in patent US20250249006A1, “TREATMENT” (Verona Pharma PLC, priority 2024, published 2025).

How the values were obtained:
[1] = system: patients aged 40-80 years with moderate to severe COPD; assay: Clinical studies, ensifentrine vs placebo: COPD symptom responders (E-RS −2 units or TDI +1 unit) in patients with low FEV1 response; assay type: in vivo; settings: for Ensifentrine vs. Placebo Odds Ratio, E-RS (−2 Unit) or TDI (+1 Unit) Responders / Odds in favor of a response, E-RS (−2 Unit) or TDI (+1 Unit) Responders / Ensifentrine vs. Placebo Odds Ratio, TDI (+1 Unit) or E-RS (−2 Unit) Responders / Odds in favor of a response, TDI (+1 Unit) or E-RS (−2 Unit) Responders: logistic regression; for Ensifentrine vs. Placebo Odds Ratio, E-RS (−2 Unit) or TDI (+1 Unit) Responders / Odds in favor of a response, E-RS (−2 Unit) or TDI (+1 Unit) Responders / % E-RS (−2 Unit) or TDI (+1 Unit) Responders / % responders, E-RS (−2 Units) or TDI (+1 Unit) Responders / Ensifentrine v placebo Odds Ratio, E-RS (−2 Units) or TDI (+1 Unit) Responders / Odds in favour of response, E-RS (−2 Units) or TDI (+1 Unit) Responders / Ensifentrine vs. Placebo Odds Ratio, TDI (+1 Unit) or E-RS (−2 Unit) Responders / Odds in favor of a response, TDI (+1 Unit) or E-RS (−2 Unit) Responders / % TDI (+1 Unit) or E-RS (−2 Unit) Responders: pooled mITT; for % E-RS (−2 Unit) or TDI (+1 Unit) Responders / % responders, E-RS (−2 Units) or TDI (+1 Unit) Responders / % TDI (+1 Unit) or E-RS (−2 Unit) Responders: 3 mg BID nebuliser; for % responders, E-RS (−2 Units) or TDI (+1 Unit) Responders / Ensifentrine v placebo Odds Ratio, E-RS (−2 Units) or TDI (+1 Unit) Responders / Odds in favour of response, E-RS (−2 Units) or TDI (+1 Unit) Responders: improvement in morning trough FEV1 less than 40 mL (table line prints <60 mL); for proportion of patients with a clinically important improvement in symptoms: over 24 weeks
Procedure: (§1) Clinical studies were conducted to determine the efficacy of ensifentrine in treating COPD compared with placebo. Ensifentrine was administered by nebuliser at a dose of 3 mg twice daily (BID) for 24 weeks. The studies were multi-centre, randomized, double-blind, parallel-group, placebo-controlled trials.
(§2) The study population included patients aged 40-80 years with moderate to severe COPD (FEV1 30%-70% p.n., FEV1/forced vital capacity (FVC) ratio<0.7, with mMRC≥2). The randomization stratified (a) the use of stable background maintenance LAMA or LABA therapy use (approx. 50%. yes or no) and (b) cigarette smoking (current or former). Inhaled corticosteroid (ICS) maintenance therapy was permitted in up to 20% of patients under certain provisions.
The primary endpoint was change from baseline in average FEV1 area under the curve AUC0-12h post-dose at week 12. Also assessed were COPD symptoms and quality of life (QoL) in patients showing lower responses in terms of lung function, and in particular patients with: (i) improvement in average FEV1 AUC0-12h of less than 100 mL and (ii) improvement in morning trough FEV1 of less than 100 mL, less than 60 mL or less than 40 mL.
COPD symptoms were assessed using Evaluating Respiratory Symptoms (E-RS; EXACT-Respiratory Symptoms, The minimal clinically important difference (MCID) of the E-RS is a total score of −2 units. User Manual (Version 3.0), October 2014) and Transitional Dyspnea Index (TDI; Mahler et al, The MCID of the transition dyspnea index is a total score of one unit. COPD 2005, 2:99-103.) and QoL was assessed using the St. George's Respiratory Questionnaire (SGRQ; Jones, St. George's Respiratory Questionnaire: The MCID of the SGRQ is a total score of −4 units. COPD 2005, 2:75-79.).

[2] = system: patients aged 40-80 years with moderate to severe COPD; assay: Clinical studies, ensifentrine vs placebo: moderate/severe COPD exacerbations; assay type: in vivo; settings: nominally statistically significant
Procedure: as §1, §2
COPD exacerbations were defined as worsening of 2 or more major symptoms (dyspnea, sputum volume, and sputum purulence) or worsening of any 1 major symptom together with any 1 of the following minor symptoms: sore throat, colds, fever without other cause, and increased cough or wheeze for at least 2 consecutive days. COPD exacerbations were considered to be of moderate severity if treatment with systemic corticosteroids and/or antibiotics was required and were considered to be severe if hospitalization was required.

[3] = average FEV1 AUC0-12h <100 mL at Week 12, Week 6
[4] = average FEV1 AUC0-12h <100 mL at Week 12, Week 12
[5] = average FEV1 AUC0-12h <100 mL at Week 12, Week 24
[6] = morning trough FEV1 <60 mL at Week 6, Week 6
[7] = morning trough FEV1 <60 mL at Week 12, Week 12
[8] = morning trough FEV1 <60 mL at Week 24, Week 24
[9] = morning trough FEV1 <100 mL at Week 6, Week 6
[10] = morning trough FEV1 <100 mL at Week 12, Week 12
[11] = morning trough FEV1 <100 mL at Week 24, Week 24

SMILES: COc1cc2c(cc1OC)-c1c/c(=N\c3c(C)cc(C)cc3C)n(CCNC(N)=O)c(=O)n1CC2 [Ensifentrine, N-(2-{(2E)-9,10-dimethoxy-4-oxo-2-[(2,4,6-trimethylphenyl)imino]-6,7-dihydro-2H-pyrimido[6,1-a]isoquinolin-3(4H)-yl}ethyl)urea]
- subjects achieving symptom MCID ([1]; FEV1 AUC0-12h <100 mL or morning trough FEV1 <100, <60 or <40 mL, overall conclusion): approximately 70%
- Ensifentrine vs. Placebo Odds Ratio, E-RS (−2 Unit) or TDI (+1 Unit) Responders [1, 3]: 1.42
- Odds in favor of a response, E-RS (−2 Unit) or TDI (+1 Unit) Responders [1, 3]: 1.69
- Ensifentrine vs. Placebo Odds Ratio, E-RS (−2 Unit) or TDI (+1 Unit) Responders [1, 4]: 1.63
- Odds in favor of a response, E-RS (−2 Unit) or TDI (+1 Unit) Responders [1, 4]: 2.69
- Ensifentrine vs. Placebo Odds Ratio, E-RS (−2 Unit) or TDI (+1 Unit) Responders [1, 5]: 1.38
- Odds in favor of a response, E-RS (−2 Unit) or TDI (+1 Unit) Responders [1, 5]: 2.91
- % E-RS (−2 Unit) or TDI (+1 Unit) Responders ([1]; average FEV1 AUC0-12h <100 mL at Week 12, responders at Week 6): 66.3%
- % E-RS (−2 Unit) or TDI (+1 Unit) Responders ([1]; average FEV1 AUC0-12h <100 mL at Week 12, responders at Week 12): 71.2%
- % E-RS (−2 Unit) or TDI (+1 Unit) Responders ([1]; average FEV1 AUC0-12h <100 mL at Week 12, responders at Week 24): 72.7%
- % responders, E-RS (−2 Units) or TDI (+1 Unit) Responders ([1]; Week 6): 67.1%
- Ensifentrine v placebo Odds Ratio, E-RS (−2 Units) or TDI (+1 Unit) Responders ([1]; Week 6): 1.468
- Odds in favour of response, E-RS (−2 Units) or TDI (+1 Unit) Responders ([1]; Week 6): 1.453
- % responders, E-RS (−2 Units) or TDI (+1 Unit) Responders ([1]; Week 12): 70.4%
- Ensifentrine v placebo Odds Ratio, E-RS (−2 Units) or TDI (+1 Unit) Responders ([1]; Week 12): 1.433
- Odds in favour of response, E-RS (−2 Units) or TDI (+1 Unit) Responders ([1]; Week 12): 2.338
- % responders, E-RS (−2 Units) or TDI (+1 Unit) Responders ([1]; Week 24): 73.0%
- Ensifentrine v placebo Odds Ratio, E-RS (−2 Units) or TDI (+1 Unit) Responders ([1]; Week 24): 1.370
- Odds in favour of response, E-RS (−2 Units) or TDI (+1 Unit) Responders ([1]; Week 24): 3.238
- proportion of patients with a clinically important improvement in symptoms ([1]; increase in average FEV1 AUC0-12h less than 100 mL at Week 12): at least ⅔
- proportion of patients with a clinically important improvement in symptoms ([1]; increase in morning trough FEV1 less than 100 mL at Week 12): at least ⅔
- Ensifentrine vs. Placebo Odds Ratio, TDI (+1 Unit) or E-RS (−2 Unit) Responders [1, 6]: 1.42
- Odds in favor of a response, TDI (+1 Unit) or E-RS (−2 Unit) Responders [1, 6]: 1.35
- % TDI (+1 Unit) or E-RS (−2 Unit) Responders ([1]; morning trough FEV1 <60 mL at Week 6, responders at Week 6): 65.3%
- Ensifentrine vs. Placebo Odds Ratio, TDI (+1 Unit) or E-RS (−2 Unit) Responders [1, 7]: 1.59
- Odds in favor of a response, TDI (+1 Unit) or E-RS (−2 Unit) Responders [1, 7]: 2.83
- % TDI (+1 Unit) or E-RS (−2 Unit) Responders ([1]; morning trough FEV1 <60 mL at Week 12, responders at Week 12): 71.3%
- Ensifentrine vs. Placebo Odds Ratio, TDI (+1 Unit) or E-RS (−2 Unit) Responders [1, 8]: 1.36
- Odds in favor of a response, TDI (+1 Unit) or E-RS (−2 Unit) Responders [1, 8]: 2.74
- % TDI (+1 Unit) or E-RS (−2 Unit) Responders ([1]; morning trough FEV1 <60 mL at Week 24, responders at Week 24): 71.7%
- Ensifentrine vs. Placebo Odds Ratio, E-RS (−2 Unit) or TDI (+1 Unit) Responders [1, 9]: 1.43
- Odds in favor of a response, E-RS (−2 Unit) or TDI (+1 Unit) Responders [1, 9]: 1.47
- % E-RS (−2 Unit) or TDI (+1 Unit) Responders ([1]; morning trough FEV1 <100 mL at Week 6, responders at Week 6): 66.1%
- Ensifentrine vs. Placebo Odds Ratio, E-RS (−2 Unit) or TDI (+1 Unit) Responders [1, 10]: 1.73
- Odds in favor of a response, E-RS (−2 Unit) or TDI (+1 Unit) Responders [1, 10]: 2.96
- % E-RS (−2 Unit) or TDI (+1 Unit) Responders ([1]; morning trough FEV1 <100 mL at Week 12, responders at Week 12): 71.9%
- Ensifentrine vs. Placebo Odds Ratio, E-RS (−2 Unit) or TDI (+1 Unit) Responders [1, 11]: 1.42
- Odds in favor of a response, E-RS (−2 Unit) or TDI (+1 Unit) Responders [1, 11]: 2.75
- % E-RS (−2 Unit) or TDI (+1 Unit) Responders ([1]; morning trough FEV1 <100 mL at Week 24, responders at Week 24): 72.0%
- reduction in moderate/severe exacerbation rate and risk (time to first event) vs placebo ([2]; patients with improvement in average FEV1 AUC0-12h less than 100 mL): 37%
- reduction in moderate/severe exacerbation rate and risk (time to first event) vs placebo ([2]; patients with improvement in morning trough FEV1 less than 100 mL): approximately 40%
